From US10807960B2, “Compounds, compositions, and methods for controlling biofilms” (KATHOLIEKE UNIVERSITEIT LEUVEN, priority 2015, dated 2020)
Like-named read-outs stand apart in the source and are kept apart here.

Columns and labels:
[1] = system: C. albicans SC5314; assay: inhibition of C. albicans biofilms, cell titer blue (CTB) quantification; assay type: cell-based, Candida albicans; details: monospecies biofilm; novel compounds: highest concentration tested 100 μM
Experimental: The potential of the compounds to prevent C. albicans SC5314 biofilm formation was assessed using the cell titer blue (CTB) quantification method (26). For the CTB method, an overnight culture of C. albicans SC5314 was washed with PBS and a cell suspension of 10^6 cells/ml (OD600=0.1) was prepared in RPMI 1640 medium (pH 7.0). […] After 16 h of static incubation at 37° C., biofilms were washed and quantified with CTB as described previously.

[2] = system: C. albicans SC5314 + S. epidermidis; assay: mixed C. albicans/S. epidermidis biofilm assay, selective plating; assay type: cell-based, Candida albicans; Staphylococcus epidermidis; details: for activity at 25 µM: 25 μM (Table 5); for activity at 100 µM: 100 μM (Table 5)
Experimental: The concentrations 25 μM (0.0625% DMSO or ethanol) and 100 μM (0.25% DMSO or ethanol) were tested. After 24 h of incubation at 37° C., biofilms were washed with PBS and fresh medium with or without compounds was added. After further incubation for 48 h at 37° C., the biofilms were washed with PBS after which the cells were re-suspended in 100 μl of PBS by scraping off, sonication (1 min, 45 kHz, USC300-T; VWR, Radnor, Pa., USA) and vigorously pipetting up-and-down. Finally, the biofilm cells were diluted in PBS and plated on YPD agar plates containing 100 mg/L ampicillin and TSA plates containing 25 mg/L amphotericin B, to determine the number of fungal and bacterial CFUs after 2 days of incubation at 37° C., respectively. The percentage of C. albicans SC5314 and S. epidermidis cells was determined relative to the DMSO or ethanol control treatment.

[3] = system: osteoblasts (OB); assay: mammalian-cell viability assay, trypan blue staining; assay type: cell-based; details: 12.5 μM; for proliferation (in words): 6 days exposure
Experimental: (§1) Cell viability of two human primary cell types, namely, osteoblasts (OB) and bone-marrow derived mesenchymal stem cells (MSC) was tested according to the ISO 10993-5 standard, as previously described. Briefly, cells were seeded in 96-well tissue culture test plates (TPP, Switzerland) at 5×10^3 cells/cm^2 in Advanced DMEM cell culture media supplemented with 10% serum, 1× GlutaMAX, 0.05 mg/mL Gentamycin, and were allowed to attach overnight. The next day, the cells were exposed to (i) cell culture medium and medium with the corresponding control (0.5% ethanol or DMSO) (negative controls), (ii) medium with 0.05% phenol (cytotoxic control), and (iii) medium with compounds (12.5 μM) and incubated for 2 h, 48 h and 6 days (8 repeats for each condition). At each time-point the numbers of viable and dead cells were determined directly by trypan blue staining, and indirectly by measuring the metabolic activity with MTT (3-(4,5-dimethylthiazol-2-yl)-2,5-diphenyltetrazolium bromide) staining.
(§2) The medium was removed from the wells, and 1/3 trypan blue in Dulbecco's modified Eagle's medium (DMEM) was added to the cells, incubated for 3 min, after which trypan blue was removed and DMEM medium was added to the wells. In each of four wells, two microscopy fields were counted for viable (transparent) and dead (blue) cells.

[4] = system: bone-marrow derived mesenchymal stem cells (MSC); assay: metabolic activity, MTT staining; assay type: cell-based; details: 12.5 μM, 6 days treatment
Experimental: as §1
(§3) The medium was removed from the wells and 100 μl of medium, supplemented with 10% serum and 0.5 mg/mL MTT was added to the cells. The cells were incubated overnight at 37° C. and 5% CO2. The next day the medium with MTT was removed and 100 μl acidic isopropanol was added. The cells were then centrifuged at 2300 g and 50 μl of the supernatant was transferred to a new 96-well plate. The absorbance was measured at 570 nm and the background was measured at 660 nm. Four wells per condition were examined.

[5] = system: osteoblasts (OB); assay: metabolic activity, MTT staining; assay type: cell-based; details: 12.5 μM, 6 days treatment
Experimental: as §1, §3

[6] = system: bone-marrow derived mesenchymal stem cells (MSC); assay: osteogenic differentiation, calcium and DNA assay; assay type: cell-based, human; details: 12.5 μM, calcium content normalized by DNA, versus solvent control
Experimental: (§4) The effect on osteogenic differentiation potential was assessed as previously described. Only the substances that allowed survival of the cells for more than 3 weeks, which is the time needed for mature osteogenic differentiation, were tested. Briefly, osteoblasts and bone-marrow derived mesenchymal stem cells were cultured in a positive solvent control (osteogenic medium with 0.5% DMSO or ethanol background), a negative control (medium without osteogenic supplements) and treated samples (osteogenic medium, 0.5% DMSO or ethanol background and 12.5 μM of test compound) with four repeats per condition. Mesenchymal stem cells and osteoblast cell cultures were harvested after 3 or 5 weeks, respectively, for the calcium and DNA assay.
(§5) Calcium deposition of osteoblasts and mesenchymal stem cells was measured with the Calcium CPC LiquiColor test (Stanbio Laboratory, Boerne, Tex.) as previously described. Briefly, cell cultures were extracted with 5% trichloroacetic acid (500 μl per sample), O-cresolphtalein complex was added, and the calcium content was determined spectrophotometrically at 550 nm. DNA content was determined as previously described. DNA values were used to normalize the calcium content. Four wells per condition were examined, and two samples from each well were taken for each assay.

[7] = system: osteoblasts (OB); assay: osteogenic differentiation, calcium and DNA assay; assay type: cell-based, human; details: 12.5 μM, calcium content normalized by DNA, versus solvent control
Experimental: as §4, §5

[8] = system: E. coli TG1 + P. aeruginosa PA14; assay: mixed E. coli/P. aeruginosa biofilm assay, crystal violet; assay type: cell-based
Experimental: Overnight cultures of E. coli TG1 and P. aeruginosa PA14, were diluted 1/100 in the same vial of TSB 1/20 to form a mixed culture suspension.

[9] = system: bone-marrow derived mesenchymal stem cells (MSC); assay: mammalian-cell viability assay, trypan blue staining; assay type: cell-based; details: 12.5 μM, 6 days exposure
Experimental: as §1, §2

[10] = system: E. coli TG1; assay: static peg (Calgary Biofilm Device) anti-biofilm assay, crystal violet and OD600
[11] = C. albicans in mixed biofilm with S. epidermidis, read-out: CFUs % survival C.a.
[12] = S. epidermidis in mixed biofilm with C. albicans, read-out: CFUs % survival Se.
[13] = S. epidermidis in mixed biofilm with C. albicans, read-out: CFUs % survival S.c.

metabolic activity compared to the solvent control (in words) [4] | metabolic activity compared to the solvent control (in words) [5] | Compound | anti-biofilm activity (in words) [1] | effect on the C. albicans/S. epidermidis mixture (in words) [2] | activity at 25 µM [2, 11] [%] | activity at 100 µM [2, 11] [%] | proliferation (in words) [3] | cell viability (in words) ([3]; 6 days of exposure, trypan blue) | calcium deposition (in words) [6] | calcium deposition (in words) [7] | activity at 100 µM [2, 12] [%] | inhibition of the mixed biofilm P. aeruginosa/E. coli (in words) [8] | proliferation (in words) [9] | anti-biofilm activity (in words) ([10]; biofilm at 37° C.) | anti-biofilm activity (in words) ([10]; biofilm cells at 25° C.) | activity at 25 µM [2, 13] [%]
increased | increased | CCCCCCCCn1c(-c2ccc(Br)cc2)cnc1NCC(C)C [Compound 8c, 5-(4-bromophenyl)-N-isobutyl-1-octyl-1H-imidazol-2-amine] | not active | only reduced C. albicans | 3.2 | 8.4 | increase in proliferation | very slightly reduced viability | induced the calcium deposition | induced the calcium deposition |  |  |  |  |  | 
 |  | CCCCCCCCn1c(-c2ccccc2)cnc1NCC(C)C [Compound 8a, N-isobutyl-1-octyl-5-phenyl-1H-imidazol-2-amine] |  |  |  | 1 | slightly reduced |  |  |  | 1 | strongly inhibited | slightly reduced | showed activity | potent activity | 
increased | increased | CCCCCCCCn1c(-c2ccc(Cl)c(Cl)c2)cnc1NC1CCCC1 [Compound 8h, 5-(3,4-dichlorophenyl)-N-cyclopentyl-1-octyl-1H-imidazol-2-amine] | not active |  | 6.7 | 3.5 | increase in proliferation |  | induced the calcium deposition | induced the calcium deposition | 2.2 |  |  |  |  | 2
 |  | CCCCCCCCn1c(-c2ccc(Cl)cc2)cnc1NCC(C)C [Compound 8b, 5-(4-chlorophenyl)-N-isobutyl-1-octyl-1H-imidazol-2-amine] |  |  | 2 |  |  |  | induced the calcium deposition | induced the calcium deposition | 0.7 |  |  |  | potent activity | 6.1
